# Data published in a compilation of properties of binary mixtures (doi:10.1016/j.molliq.2022.120022).
# Test: xn = mol fraction of the nth substance listed
# Settings: 100 kPa
smiles,measurement,setting,value
C[N+](C)(C)CCO.NCC(=O)[O-] + O,speed of sound,"298.15 K, x1 = 0.1",1927.4 m/s
same,viscosity,"298.15 K, x1 = 0.1",5.83 mPa·s
same,speed of sound,"298.15 K, x1 = 0.2004",2082.9 m/s
same,viscosity,"298.15 K, x1 = 0.2004",23.73 mPa·s
same,speed of sound,"298.15 K, x1 = 0.3",2134.5 m/s
same,viscosity,"298.15 K, x1 = 0.3",56.96 mPa·s
same,speed of sound,"298.15 K, x1 = 0.3996",2152.4 m/s
same,viscosity,"298.15 K, x1 = 0.3996",99 mPa·s
same,speed of sound,"298.15 K, x1 = 0.5004",2156.2 m/s
same,viscosity,"298.15 K, x1 = 0.5004",154.4 mPa·s
same,speed of sound,"298.15 K, x1 = 0.6004",2156 m/s
same,viscosity,"298.15 K, x1 = 0.6004",216 mPa·s
same,speed of sound,"298.15 K, x1 = 0.6966",2153.1 m/s
same,viscosity,"298.15 K, x1 = 0.6966",274 mPa·s
same,speed of sound,"298.15 K, x1 = 0.8014",2151.8 m/s
same,viscosity,"298.15 K, x1 = 0.8014",348 mPa·s
same,speed of sound,"298.15 K, x1 = 0.8996",2146 m/s
same,viscosity,"298.15 K, x1 = 0.8996",420 mPa·s
same,speed of sound,"303.15 K, x1 = 0.1",1922.7 m/s
same,viscosity,"303.15 K, x1 = 0.1",5.01 mPa·s
same,speed of sound,"303.15 K, x1 = 0.2004",2073.3 m/s
same,viscosity,"303.15 K, x1 = 0.2004",19.44 mPa·s
same,speed of sound,"303.15 K, x1 = 0.3",2122.9 m/s
same,viscosity,"303.15 K, x1 = 0.3",45.62 mPa·s
same,speed of sound,"303.15 K, x1 = 0.3996",2140.5 m/s
same,viscosity,"303.15 K, x1 = 0.3996",77.3 mPa·s
same,speed of sound,"303.15 K, x1 = 0.5004",2144.8 m/s
same,viscosity,"303.15 K, x1 = 0.5004",115.5 mPa·s
same,speed of sound,"303.15 K, x1 = 0.6004",2143.4 m/s
same,viscosity,"303.15 K, x1 = 0.6004",160.8 mPa·s
same,speed of sound,"303.15 K, x1 = 0.8014",2136.2 m/s
same,viscosity,"303.15 K, x1 = 0.8014",257 mPa·s
same,speed of sound,"303.15 K, x1 = 0.8996",2133.2 m/s
same,viscosity,"303.15 K, x1 = 0.8996",306 mPa·s
same,speed of sound,"303.15 K, x1 = 1",2129.1 m/s
same,viscosity,"303.15 K, x1 = 1",363 mPa·s
same,speed of sound,"308.15 K, x1 = 0.2004",2063.4 m/s
same,viscosity,"308.15 K, x1 = 0.2004",16.15 mPa·s
same,speed of sound,"308.15 K, x1 = 0.3",2111.5 m/s
same,viscosity,"308.15 K, x1 = 0.3",37.06 mPa·s
same,speed of sound,"308.15 K, x1 = 0.5004",2132.2 m/s
same,viscosity,"308.15 K, x1 = 0.5004",89.6 mPa·s
same,speed of sound,"308.15 K, x1 = 0.6004",2130.3 m/s
same,viscosity,"308.15 K, x1 = 0.6004",122.8 mPa·s
same,speed of sound,"308.15 K, x1 = 0.6966",2127.8 m/s
same,viscosity,"308.15 K, x1 = 0.6966",153.5 mPa·s
same,speed of sound,"308.15 K, x1 = 0.8014",2125.2 m/s
same,viscosity,"308.15 K, x1 = 0.8014",191.6 mPa·s
same,speed of sound,"308.15 K, x1 = 0.8996",2120.1 m/s
same,viscosity,"308.15 K, x1 = 0.8996",227 mPa·s
same,speed of sound,"308.15 K, x1 = 1",2116 m/s
same,viscosity,"308.15 K, x1 = 1",264 mPa·s
same,speed of sound,"313.15 K, x1 = 0.1",1911.9 m/s
same,viscosity,"313.15 K, x1 = 0.1",3.8 mPa·s
same,speed of sound,"313.15 K, x1 = 0.2004",2053.2 m/s
same,viscosity,"313.15 K, x1 = 0.2004",13.57 mPa·s
same,speed of sound,"313.15 K, x1 = 0.3",2099.8 m/s
same,viscosity,"313.15 K, x1 = 0.3",30.58 mPa·s
same,speed of sound,"313.15 K, x1 = 0.6004",2118 m/s
same,viscosity,"313.15 K, x1 = 0.6004",95.3 mPa·s
same,speed of sound,"313.15 K, x1 = 0.6966",2115 m/s
same,viscosity,"313.15 K, x1 = 0.6966",118.6 mPa·s
same,speed of sound,"313.15 K, x1 = 0.8014",2112.1 m/s
same,viscosity,"313.15 K, x1 = 0.8014",147.4 mPa·s
same,speed of sound,"313.15 K, x1 = 0.8996",2107.2 m/s
same,viscosity,"313.15 K, x1 = 0.8996",172.7 mPa·s
same,speed of sound,"313.15 K, x1 = 1",2103.5 m/s
same,viscosity,"313.15 K, x1 = 1",201 mPa·s
same,speed of sound,"318.15 K, x1 = 0.2004",2043 m/s
same,viscosity,"318.15 K, x1 = 0.2004",11.51 mPa·s
same,speed of sound,"318.15 K, x1 = 0.6004",2105.6 m/s
same,viscosity,"318.15 K, x1 = 0.6004",75.6 mPa·s
same,speed of sound,"318.15 K, x1 = 0.6966",2102.3 m/s
same,viscosity,"318.15 K, x1 = 0.6966",92.7 mPa·s
same,speed of sound,"318.15 K, x1 = 0.8014",2098.7 m/s
same,viscosity,"318.15 K, x1 = 0.8014",114.4 mPa·s
same,speed of sound,"318.15 K, x1 = 0.8996",2094.2 m/s
same,viscosity,"318.15 K, x1 = 0.8996",134.5 mPa·s
same,speed of sound,"323.15 K, x1 = 0.1",1899.4 m/s
same,viscosity,"323.15 K, x1 = 0.1",2.97 mPa·s
same,speed of sound,"323.15 K, x1 = 0.2004",2032.2 m/s
same,viscosity,"323.15 K, x1 = 0.2004",9.83 mPa·s
same,speed of sound,"323.15 K, x1 = 0.3",2076.6 m/s
same,viscosity,"323.15 K, x1 = 0.3",21.79 mPa·s
same,speed of sound,"323.15 K, x1 = 0.3996",2091.4 m/s
same,viscosity,"323.15 K, x1 = 0.3996",34.59 mPa·s
same,speed of sound,"323.15 K, x1 = 0.5004",2094.9 m/s
same,viscosity,"323.15 K, x1 = 0.5004",46.6 mPa·s
same,speed of sound,"323.15 K, x1 = 0.6004",2092.8 m/s
same,viscosity,"323.15 K, x1 = 0.6004",60.8 mPa·s
same,speed of sound,"323.15 K, x1 = 0.6966",2089.9 m/s
same,viscosity,"323.15 K, x1 = 0.6966",74.1 mPa·s
same,speed of sound,"323.15 K, x1 = 0.8014",2086.3 m/s
same,viscosity,"323.15 K, x1 = 0.8014",91 mPa·s
same,speed of sound,"323.15 K, x1 = 0.8996",2081.8 m/s
same,viscosity,"323.15 K, x1 = 0.8996",105.2 mPa·s
same,speed of sound,"323.15 K, x1 = 1",2078.3 m/s
same,viscosity,"323.15 K, x1 = 1",121.1 mPa·s
O + C[N+](C)(C)CCO.NCC(=O)[O-],viscosity,"298.15 K, x2 = 0",0.89 mPa·s
same,viscosity,"303.15 K, x2 = 0",0.8 mPa·s
same,viscosity,"308.15 K, x2 = 0",0.72 mPa·s
same,speed of sound,"313.15 K, x2 = 0",1529 m/s
same,viscosity,"313.15 K, x2 = 0",0.66 mPa·s
same,viscosity,"318.15 K, x2 = 0",0.61 mPa·s
same,viscosity,"323.15 K, x2 = 0",0.56 mPa·s
